Results published in PMC11062899, “De novo development of small cyclic peptides that are orally bioavailable” (Nature Chemical Biology, 2023).
Where “and” joins values, the source holds several entries; their conditions need not be identical. Equal values may be shown once.

Key:
rat α-thrombin = target: T1, rat α-thrombin (Rattus norvegicus, UniProt P18292); test: Protease inhibition, Ki for rat α-thrombin (fluorogenic substrate Z-Gly-Gly-Arg-AMC); type: biochemical; settings: replicates R1-R3
T1 construct: rat α-thrombin (Molecular Innovations) were used at final concentrations of 2 nM and 3 nM; purchased Molecular Innovations
Summary of the method: (§1)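 Ki values come from Cheng–Prusoff correction of IC50, itself fitted by four-parameter logistic regression of activity versus a no-peptide control. Assays used 2 nM human or 3 nM rat thrombin, 50 μM Z-Gly-Gly-Arg-AMC, 30 min kinetic fluorescence at 25 °C.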

[1] = Peptide stability in simulated intestinal fluid (SIF); type: in vitro ADME, porcine; settings: simulated gi fluid; 8 h, 37 °C, pH 6.8; read-out: Proteolytic stability: SIF (8 h) % remaining
Summary of the method: (§2)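 Peptide from a 1 mM DMSO stock was added to fluid pre-warmed at 37 °C. SGF was pH 1.2 NaCl with porcine pepsin (0.32 g per 100 ml), and SIF was pH 6.8 potassium phosphate with porcine pancreatin (1 g per 100 ml). Supernatant peptide was quantified by LC–MS, with residual expressed as T1/T0.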

porcine pancreatin = test: as above; type: in vitro ADME; settings: after 8 h vs 0 h (TIC); for SIF stability, Residual peptide Average: average of R1-R3; for SIF stability, Residual peptide: single replicates R1-R3
Summary of the method: as §2

human α-thrombin = human α-thrombin (Homo sapiens, UniProt P00734); test: Protease inhibition, Ki for human α-thrombin (fluorogenic substrate Z-Gly-Gly-Arg-AMC); type: biochemical; settings: replicates R1-R3
Summary of the method: as §1

porcine pepsin = target: T2, porcine pepsin (Sus scrofa, UniProt P00791); test: Peptide stability in simulated gastric fluid (SGF); type: in vitro ADME; settings: for SGF stability, Residual peptide Average / SGF stability, Residual peptide: after 8 h vs 0 h (TIC); for SGF stability, Residual peptide Average: average of R1-R3; for SGF stability, Residual peptide: single replicates R1-R3; for remaining at 8 h: simulated gi fluid, 37 °C, pH 1.2, read-out: Proteolytic stability: SGF (8 h) % remaining
T2 construct: 0.32 g of porcine pepsin (Sigma-Aldrich, P7125) was dissolved under gentle agitation; purchased Sigma-Aldrich P7125
Summary of the method: as §2

[2] = Passive artificial membrane permeability (PAMPA); settings: for PAMPA permeability: % permeability: 50 μM, 12–18 h, acceptor concentration relative to equilibrium; for Papp at 50 μM / Permeability% Average / Permeability% R1 / Permeability% R3: PAMPA; for Papp at 50 μM: pH 7.4; for Permeability% Average: average of R1-R3; for Permeability% R1: replicate R1; for Permeability% R1 / Permeability% R3: TIC of top well sample relative to sample at theoretical equilibrium; for Permeability% R3: replicate R3
[3] = Metabolic stability in rat liver microsomes (RLMs); settings: rat, microsomes
[4] = peptide 1.33E+02 uM, slope of proteolytic substrate cleavage over time
[5] = CL (ul/min/mg protein) R1, RLM CL, replicate R1
[6] = CL (ul/min/mg protein) R2, RLM CL, replicate R2
[7] = CL (ul/min/mg protein) R3, RLM CL, replicate R3
[8] = Half Life (min) R1, RLM metabolic stability, replicate R1, 0-60 min
[9] = Half Life (min) R2, RLM metabolic stability, replicate R2, 0-60 min
[10] = Half Life (min) R3, RLM metabolic stability, replicate R3, 0-60 min
[11] = Metabolic stability: Half life T1/2 (min), RLMs, mean and SD, three measurements
[12] = Metabolic stability: RLM CL (ul/min/mg), RLMs, mean and SD, three measurements

T2 sequence (P00791 60-385): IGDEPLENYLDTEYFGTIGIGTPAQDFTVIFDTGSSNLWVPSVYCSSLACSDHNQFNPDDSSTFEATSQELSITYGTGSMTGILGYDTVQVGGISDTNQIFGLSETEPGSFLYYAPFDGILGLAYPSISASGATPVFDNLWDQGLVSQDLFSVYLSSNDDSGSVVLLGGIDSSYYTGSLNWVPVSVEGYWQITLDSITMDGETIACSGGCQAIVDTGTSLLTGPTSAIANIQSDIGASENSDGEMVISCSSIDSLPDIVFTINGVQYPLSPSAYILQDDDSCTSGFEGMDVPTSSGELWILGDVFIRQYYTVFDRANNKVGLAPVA

SMILES: O=C1CCSCc2ccc(cc2)CSCCNC(=O)[C@H](CNC(=O)c2ccc(Cl)s2)NC(=O)[C@H](Cc2ccccn2)N1 [compound 21]
- Rat alpha thrombin inhibition, slope normalized to DMSO (rat α-thrombin; [4]): 2.7 and 0.9 and 1.3
- Rat alpha thrombin inhibition, slope normalized to DMSO (rat α-thrombin; peptide 1.67E+01 uM): 3.2 and 2.7 and 2.4
- Rat alpha thrombin inhibition, slope normalized to DMSO (rat α-thrombin; peptide 2.08E+00 uM): 15.0 and 14.2 (2×)
- Rat alpha thrombin inhibition, slope normalized to DMSO (rat α-thrombin; peptide 3.33E+01 uM): 3.0 and 2.9 and 1.6
- Rat alpha thrombin inhibition, slope normalized to DMSO (rat α-thrombin; peptide 4.17E+00 uM): 8.4 and 7.9 and 15.6
- Rat alpha thrombin inhibition, slope normalized to DMSO (rat α-thrombin; peptide 6.67E+01 uM): 2.7 and 2.1 and 0.8
- Rat alpha thrombin inhibition, slope normalized to DMSO (rat α-thrombin; peptide 8.33E+00 uM): 4.8 and 3.7 and 3.3
- remaining at 8 h [1]: 73 ± 14%
- SIF stability, Residual peptide Average (porcine pancreatin): 72.44
- SIF stability, Residual peptide (porcine pancreatin): 71.05 and 59.57 and 86.70
- Human alpha thrombin inhibition, slope normalized to DMSO (human α-thrombin; peptide 1.02E-03 uM): 103.5 and 98.1 and 102.6
- Human alpha thrombin inhibition, slope normalized to DMSO (human α-thrombin; peptide 1.04E+00 uM): 51.0 and 46.3 and 53.8
- Human alpha thrombin inhibition, slope normalized to DMSO (human α-thrombin; peptide 1.27E-04 uM): 101.6 (2×) and 101.3
- Human alpha thrombin inhibition, slope normalized to DMSO (human α-thrombin; peptide 1.30E-01 uM): 84.8 and 85.3 and 87.8
- Human alpha thrombin inhibition, slope normalized to DMSO (human α-thrombin; [4]): 2.9 and 4.3 and 7.1
- Human alpha thrombin inhibition, slope normalized to DMSO (human α-thrombin; peptide 1.63E-02 uM): 94.6 and 91.7 and 97.3
- Human alpha thrombin inhibition, slope normalized to DMSO (human α-thrombin; peptide 1.67E+01 uM): 6.9 and 8.0 and 8.2
- Human alpha thrombin inhibition, slope normalized to DMSO (human α-thrombin; peptide 2.03E-03 uM): 83.6 and 95.2 and 99.1
- Human alpha thrombin inhibition, slope normalized to DMSO (human α-thrombin; peptide 2.08E+00 uM): 39.4 and 34.7 and 41.2
- Human alpha thrombin inhibition, slope normalized to DMSO (human α-thrombin; peptide 2.54E-04 uM): 100.6 and 99.2 and 101.0
- Human alpha thrombin inhibition, slope normalized to DMSO (human α-thrombin; peptide 2.60E-01 uM): 69.7 and 83.0 and 22.1
- Human alpha thrombin inhibition, slope normalized to DMSO (human α-thrombin; peptide 3.18E-05 uM): 102.2 and 99.2 and 102.0
- Human alpha thrombin inhibition, slope normalized to DMSO (human α-thrombin; peptide 3.26E-02 uM): 94.2 and 94.0 and 90.4
- Human alpha thrombin inhibition, slope normalized to DMSO (human α-thrombin; peptide 3.33E+01 uM): 5.8 (2×) and 6.2
- Human alpha thrombin inhibition, slope normalized to DMSO (human α-thrombin; peptide 4.07E-03 uM): 90.8 and 94.4 and 95.3
- Human alpha thrombin inhibition, slope normalized to DMSO (human α-thrombin; peptide 4.17E+00 uM): 22.8 and 22.7 and 20.6
- Human alpha thrombin inhibition, slope normalized to DMSO (human α-thrombin; peptide 5.09E-04 uM): 101.7 and 100.4 and 99.5
- Human alpha thrombin inhibition, slope normalized to DMSO (human α-thrombin; peptide 5.21E-01 uM): 67.4 and 67.9 and 63.6
- Human alpha thrombin inhibition, slope normalized to DMSO (human α-thrombin; peptide 6.36E-05 uM): 101.4 and 100.0 and 102.5
- Human alpha thrombin inhibition, slope normalized to DMSO (human α-thrombin; peptide 6.51E-02 uM): 98.0 and 95.1 and 90.8
- Human alpha thrombin inhibition, slope normalized to DMSO (human α-thrombin; peptide 6.67E+01 uM): 5.7 and 4.5 and 9.4
- Human alpha thrombin inhibition, slope normalized to DMSO (human α-thrombin; peptide 8.14E-03 uM): 81.7 and 101.4 and 94.1
- Human alpha thrombin inhibition, slope normalized to DMSO (human α-thrombin; peptide 8.33E+00 uM): 13.3 and 14.1 and 15.9
- SGF stability, Residual peptide Average (porcine pepsin): 96.77
- SGF stability, Residual peptide (porcine pepsin): 95.02 and 96.82 and 98.46
- remaining at 8 h (porcine pepsin): 97 ± 2%
- PAMPA permeability: % permeability [2]: 17 ± 5%
- Papp at 50 μM [2]: 1.2 ×10⁻⁶ cm/s
- Permeability% Average [2]: 17.0%
- Permeability% R1 [2]: 13.02%
- Permeability% R3 [2]: 21.96%
- microsomal CLint [3, 5]: 102 µL/min/mg
- microsomal CLint [3, 6]: 60.2 µL/min/mg
- microsomal CLint [3, 7]: 85 µL/min/mg
- half-life [3, 8]: 13.6 min
- half-life [3, 9]: 23 min
- half-life [3, 10]: 16.3 min
- half-life [3, 11]: 17.6 ± 4 min
- microsomal CLint [3, 12]: 82 ± 17 µL/min/mg

SMILES: O=C1CCSC/C=C/CSCCNC(=O)[C@H](CNC(=O)c2ccc(Cl)s2)NC(=O)[C@H](Cc2ccccn2)N1 [compound 22]
- Rat alpha thrombin inhibition, slope normalized to DMSO (rat α-thrombin; [4]): 2.8 and 3.3 and 1.9
- Rat alpha thrombin inhibition, slope normalized to DMSO (rat α-thrombin; peptide 1.67E+01 uM): 7.6 and 6.1 and 7.2
- Rat alpha thrombin inhibition, slope normalized to DMSO (rat α-thrombin; peptide 2.08E+00 uM): 33.9 and 32.6 and 33.7
- Rat alpha thrombin inhibition, slope normalized to DMSO (rat α-thrombin; peptide 3.33E+01 uM): 4.8 and 4.2 and 4.5
- Rat alpha thrombin inhibition, slope normalized to DMSO (rat α-thrombin; peptide 4.17E+00 uM): 21.3 and 20.5 and 20.2
- Rat alpha thrombin inhibition, slope normalized to DMSO (rat α-thrombin; peptide 6.67E+01 uM): 3.3 and 2.6 and 2.7
- Rat alpha thrombin inhibition, slope normalized to DMSO (rat α-thrombin; peptide 8.33E+00 uM): 13.5 and 12.2 and 12.7
- remaining at 8 h [1]: 96 ± 9%
- SIF stability, Residual peptide Average (porcine pancreatin): 96.16
- SIF stability, Residual peptide (porcine pancreatin): 94.79 and 87.84 and 105.86
- Human alpha thrombin inhibition, slope normalized to DMSO (human α-thrombin; peptide 1.02E-03 uM): 102.8 and 97.7 and 93.9
- Human alpha thrombin inhibition, slope normalized to DMSO (human α-thrombin; peptide 1.04E+00 uM): 77.5 and 70.0 and 74.3
- Human alpha thrombin inhibition, slope normalized to DMSO (human α-thrombin; peptide 1.27E-04 uM): 100.4 and 110.4 and 99.0
- Human alpha thrombin inhibition, slope normalized to DMSO (human α-thrombin; peptide 1.30E-01 uM): 97.9 and 99.8 and 91.2
- Human alpha thrombin inhibition, slope normalized to DMSO (human α-thrombin; [4]): 5.1 and 4.3 and 6.3
- Human alpha thrombin inhibition, slope normalized to DMSO (human α-thrombin; peptide 1.63E-02 uM): 96.1 and 101.1 and 95.8
- Human alpha thrombin inhibition, slope normalized to DMSO (human α-thrombin; peptide 1.67E+01 uM): 20.9 and 21.1 and 17.2
- Human alpha thrombin inhibition, slope normalized to DMSO (human α-thrombin; peptide 2.03E-03 uM): 100.4 and 98.0 and 100.5
- Human alpha thrombin inhibition, slope normalized to DMSO (human α-thrombin; peptide 2.08E+00 uM): 66.4 and 63.2 and 62.8
- Human alpha thrombin inhibition, slope normalized to DMSO (human α-thrombin; peptide 2.54E-04 uM): 104.5 and 97.0 and 96.4
- Human alpha thrombin inhibition, slope normalized to DMSO (human α-thrombin; peptide 2.60E-01 uM): 95.1 and 92.0 and 90.3
- Human alpha thrombin inhibition, slope normalized to DMSO (human α-thrombin; peptide 3.18E-05 uM): 99.7 and 98.9 and 101.2
- Human alpha thrombin inhibition, slope normalized to DMSO (human α-thrombin; peptide 3.26E-02 uM): 99.6 and 98.9 and 96.4
- Human alpha thrombin inhibition, slope normalized to DMSO (human α-thrombin; peptide 3.33E+01 uM): 10.4 and 11.3 and 12.9
- Human alpha thrombin inhibition, slope normalized to DMSO (human α-thrombin; peptide 4.07E-03 uM): 102.1 and 98.1 and 100.5
- Human alpha thrombin inhibition, slope normalized to DMSO (human α-thrombin; peptide 4.17E+00 uM): 49.4 and 48.2 and 42.7
- Human alpha thrombin inhibition, slope normalized to DMSO (human α-thrombin; peptide 5.09E-04 uM): 105.6 and 97.1 and 101.8
- Human alpha thrombin inhibition, slope normalized to DMSO (human α-thrombin; peptide 5.21E-01 uM): 84.4 and 88.3 and 83.4
- Human alpha thrombin inhibition, slope normalized to DMSO (human α-thrombin; peptide 6.36E-05 uM): 104.9 and 95.6
- Human alpha thrombin inhibition, slope normalized to DMSO (human α-thrombin; peptide 6.51E-02 uM): 99.3 and 101.7 and 95.4
- Human alpha thrombin inhibition, slope normalized to DMSO (human α-thrombin; peptide 6.67E+01 uM): 5.8 and 5.7 and 8.8
- Human alpha thrombin inhibition, slope normalized to DMSO (human α-thrombin; peptide 8.14E-03 uM): 101.9 and 98.8 and 103.6
- Human alpha thrombin inhibition, slope normalized to DMSO (human α-thrombin; peptide 8.33E+00 uM): 31.4 and 24.4 and 30.5
- SGF stability, Residual peptide Average (porcine pepsin): 96.43
- SGF stability, Residual peptide (porcine pepsin): 98.71 and 95.02 and 95.57
- remaining at 8 h (porcine pepsin): 96 ± 2%
- PAMPA permeability: % permeability [2]: 16 ± 7%
- Papp at 50 μM [2]: 1.05 ×10⁻⁶ cm/s
- Permeability% Average [2]: 15.5%
- Permeability% R1 [2]: 9.36%
- Permeability% R3 [2]: 23.67%
- microsomal CLint [3, 5]: 266 µL/min/mg
- microsomal CLint [3, 6]: 255 µL/min/mg
- microsomal CLint [3, 7]: 248 µL/min/mg
- half-life [3, 8]: 5.21 min
- half-life [3, 9]: 5.44 min
- half-life [3, 10]: 5.58 min
- half-life [3, 11]: 5.4 ± 0.2 min
- microsomal CLint [3, 12]: 260 ± 10 µL/min/mg
